What was measured:
HTL5 = target: T1, HTL5 (Striga hermonthica, UniProt A0A0M5I297); assay: Affinity for strigolactone receptor, YLG probe competition (fluorescence); type: binding; details: competition with YLG, test range 0.01 to 10 µM, pH 7.0, read-out: IC50 values of test compounds
T1 sequence (A0A0M5I297 1-271): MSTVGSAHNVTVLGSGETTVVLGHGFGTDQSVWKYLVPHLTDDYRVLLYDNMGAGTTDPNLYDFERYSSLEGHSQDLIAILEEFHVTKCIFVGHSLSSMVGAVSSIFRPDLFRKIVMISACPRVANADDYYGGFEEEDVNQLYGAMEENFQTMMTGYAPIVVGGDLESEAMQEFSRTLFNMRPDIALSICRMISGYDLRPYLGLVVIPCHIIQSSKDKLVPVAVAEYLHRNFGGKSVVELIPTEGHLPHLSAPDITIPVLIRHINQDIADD
Method: (§1) PTL 1 reports that the affinity of a test compound for the strigolactone receptor can be evaluated by reacting strigolactone with a probe for evaluation of affinity for a strigolactone receptor (e.g., YLG) in the presence of the test compound, and measuring the fluorescence emitted from the decomposition product of YLG. Therefore, the compounds synthesized in Example 1 were used as the test compounds, and the affinity for the strigolactone receptor was evaluated by a similar method to the above. The details are as follows.
(§2) An Arabidopsis thaliana strigolactone receptor (AtD14) was produced in accordance with a usual method. More specifically, cDNA of the receptor was obtained by RT-PCR, and expression and purification were carried out in E. coli. Additionally, Striga strigolactone receptors were produced by the method disclosed in PTL 1 (ShHTL1: amino acid SEQ ID NO: 1, ShHTL2: amino acid SEQ ID NO: 2, ShHTL3: amino acid SEQ ID NO: 3, ShHTL4: amino acid SEQ ID NO: 4, ShHTL5: amino acid SEQ ID NO: 5, ShHTLS: amino acid SEQ ID NO: 6, ShHTL7: amino acid SEQ ID NO: 7, ShHTLS: amino acid SEQ ID NO: 8, ShHTL9: amino acid SEQ ID NO: 9, ShHTL10: amino acid SEQ ID NO: 10, and ShHTL11: amino acid SEQ ID NO: 11.)
(§3) One hundred microliters of a reaction solution containing each of the obtained strigolactone receptors ([…]), YLG (final concentration: […]), and each of the test compounds (final concentration: 0.01 to 10 µM) or the control compound (5-deoxystrigol, final concentration: 0.01 to 10 µM) as a competitive compound (100 mM HEPES, 150 mM NaCl, pH: 7.0, 0.1% DMSO) was prepared and reacted in a 96 black-well plate (Greiner). Sixty after the initiation of the reaction, fluorescence was detected at an excitation wavelength of 480 nm and a detection wavelength of 520 nm using a fluorescence detector (SpectraMax i3, manufactured by Molecular Devices), and the fluorescence intensity was measured. Based on the measurement results of fluorescence intensity, a Lineweaver-Burk plot was created to calculate the Km values, and the IC50 values of each of the test compounds and the control compound, which are competitive compounds.
(§4) In Table 7, HTL1 to HTL11 refer to strigolactone receptors (SEQ ID NOs: 1 to 11), and AtD14 refer to the Arabidopsis thaliana strigolactone receptor.

HTL3 = target: T2, HTL3 (Striga hermonthica, UniProt A0A0M3PN85); assay: as above; type: binding; details: competition with YLG, test range 0.01 to 10 µM, pH 7.0, read-out: IC50 values of test compounds
T2 sequence (A0A0M3PN85 1-276): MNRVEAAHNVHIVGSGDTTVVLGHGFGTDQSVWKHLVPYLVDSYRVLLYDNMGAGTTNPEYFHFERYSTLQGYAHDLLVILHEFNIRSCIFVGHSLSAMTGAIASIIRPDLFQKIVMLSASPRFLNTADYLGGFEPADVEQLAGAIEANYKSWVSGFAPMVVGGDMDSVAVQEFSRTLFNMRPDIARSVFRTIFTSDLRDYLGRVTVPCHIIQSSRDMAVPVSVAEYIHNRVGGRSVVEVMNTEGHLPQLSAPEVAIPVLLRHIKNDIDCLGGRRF
Method: as §1, §2, §3, §4

HTL2 = target: T3, HTL2 (Striga hermonthica, UniProt A0A0M4AMP1); assay: as above; type: binding; details: competition with YLG, test range 0.01 to 10 µM, pH 7.0, read-out: IC50 values of test compounds
T3 sequence (A0A0M4AMP1 1-285): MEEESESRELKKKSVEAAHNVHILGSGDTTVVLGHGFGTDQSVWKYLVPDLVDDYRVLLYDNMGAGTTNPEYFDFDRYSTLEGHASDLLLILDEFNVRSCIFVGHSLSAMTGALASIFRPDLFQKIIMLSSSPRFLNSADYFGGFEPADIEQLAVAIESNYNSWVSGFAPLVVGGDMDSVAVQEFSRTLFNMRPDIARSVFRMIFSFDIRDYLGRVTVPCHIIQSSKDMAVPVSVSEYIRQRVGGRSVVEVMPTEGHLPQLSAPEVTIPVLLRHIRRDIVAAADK
Method: as §1, §2, §3, §4

HTL6 = target: T4, HTL6 (Striga hermonthica, UniProt A0A0M4AUV4); assay: as above; type: binding; details: competition with YLG, test range 0.01 to 10 µM, pH 7.0, read-out: IC50 values of test compounds
T4 sequence (A0A0M4AUV4 1-271): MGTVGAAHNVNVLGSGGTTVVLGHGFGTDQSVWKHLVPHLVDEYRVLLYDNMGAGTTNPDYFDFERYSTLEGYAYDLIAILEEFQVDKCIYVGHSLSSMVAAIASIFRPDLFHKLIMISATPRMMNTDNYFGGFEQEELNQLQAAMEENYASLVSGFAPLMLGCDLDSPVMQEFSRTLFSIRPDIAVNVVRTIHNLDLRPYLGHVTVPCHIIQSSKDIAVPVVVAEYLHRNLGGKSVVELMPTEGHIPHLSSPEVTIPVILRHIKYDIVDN
Method: as §1, §2, §3, §4

Striga hermonthica = assay: Parasitic plant germination induction test (Striga hermonthica seeds); type: in vivo; details: in the dark for 2 days; for Germination rate 0.1 nM: compound concentration 0.1 nM; for Germination rate 1 nM: compound concentration 1 nM; for Germination rate 10 nM: compound concentration 10 nM
Method: A parasitic plant germination induction test was conducted using the compounds synthesized in Example 1 as test compounds. The seeds of a parasitic plant (Striga hermonthica, Orobanche minor, or Phelipanche aegyptiaca) were suspended in sterilized ultrapure water, and this was dispensed in an amount of 100 µL each (containing about 20 seeds) into a 96-well plate. The test compounds or control compounds (Comparison Compound 1 or synthetic Strigolactone (GR^24: Comparison Compound 2)) dissolved in DMSO were individually added thereto to a final concentration of these compounds of 10 nM to 1 fM (1 × 10^-8 to 1 × 10^-15 M), and allowed to stand in the dark for 2 days. The presence or absence of germination was observed using a microscope, and the germination rate (i.e., number of germinated seeds/total number of seeds) was measured. The higher the germination rate in the parasitic plant germination induction test, or the higher the germination rate at lower concentration, the higher the Striga germination inducing activity.
In Tables 1 to 6, the concentrations (10 nM, 1 nM, and 0.1 nM) represent compound concentrations. In Tables 1-6, the evaluation criteria for the compounds are as follows: • ++: germination rate of 20% or more • +: germination rate of 5% or more and less than 20% • -: germination rate of less than 5% Table 1

Compound | IC50 (HTL5) [µM] | IC50 (HTL3) [µM] | IC50 (HTL2) [µM] | IC50 (HTL6) [µM] | Germination rate 0.1 nM (Striga hermonthica) | Germination rate 1 nM (Striga hermonthica) | Germination rate 10 nM (Striga hermonthica)
CC1=CC(OC=C2C(=O)OC3C4=C(CCCC4(C)C)CC23)OC1=O (stereo not shown) [5-Ddeoxystriqol, 5-deoxystrigol, reference compound] | 3.6 | 9.3 | 8.9 | 0.19 |  |  | 
CC1=CC(OC(=O)NCc2ccccc2)OC1=O (stereo not shown) [Comparison Compound 1, reference compound] | > 10 | > 10 | > 10 | > 10 | - (germination rate of less than 5%) | - (germination rate of less than 5%) | - (germination rate of less than 5%)
CCCCOc1ccc(S(=O)(=O)N2CCN(C(=O)OC3C=C(C)C(=O)O3)CC2)cc1 (stereo not shown) [Compound 1] | > 10 | > 10 | > 10 | > 10 | ++ (germination rate of 20% or more) | ++ (germination rate of 20% or more) | ++ (germination rate of 20% or more)
CCCCOc1ccc(S(=O)(=O)N2CCN(C(=O)OC3C=CC(=O)O3)CC2)cc1 (stereo not shown) [Compound 13] | > 10 | 2 | > 10 | > 10 | + (germination rate of 5% or more and less than 20%) | ++ (germination rate of 20% or more) | ++ (germination rate of 20% or more)

Source: patent EP3693362B1, “PARASITIC PLANT GERMINATION REGULATOR” (National University Corporation Tokai National Higher …, priority 2017, dated 2019)
